Laboratory results reported in US10494379B2, “6-oxa-3,9,15-triaza-bicyclo[9.3.1]pentadeca-1(14),11(15),12-triene derivatives based compounds and their application as ligands of essential metal ion based MRI and 52MN based PET contrast agents” (DEBRECENI EGYETEM, priority 2015, dated 2019).

Key:
[1] = literature values, 'under the same conditions'; cited from earlier work
[2] = cited from earlier work
[3] = Equilibrium study: protonation constants and total basicity of the ligands; format: physicochemical; conditions: 25° C., 0.15M NaCl
Description: (§1) During the physico-chemical studies of tOPC2A, tOPC2M^Pyp and tOPC2M^Pro compounds prepared according to Example 1, 2, and 5, their protonation constants, as well as equilibrium behaviour and kinetic inertness of their Mn(II) complexes was studied in detail, and the characteristic relaxivity values of the complexes were determined in the presence and absence of HSA (Human Serum Albumin), at 25 and 37° C. and physiological pH. All studies were performed in the presence of 0.15 M NaCl, the same concentration as that of the electrolyte under physiological conditions.
(§2) The results of equilibrium study are summarized in Table 1, in addition to the protonation constants, total basicity of ligands and stability constants of their Mn(II) complexes, the pMn value calculated for complexes are also represented in the table.

[4] = Equilibrium study: stability constants of Mn(II) complexes and calculated pMn; format: physicochemical; conditions: 25° C., 0.15M NaCl; for pMn: calculated from equilibrium constants at pH = 7.4 and cMn = cL = 10^−5 M
Description: as §1, §2
Based on the pMn values presented in Table 1 (calculated using the equilibrium constants at pH=7.4 and cMn=cL=10^−5 M), it can be concluded that the studied Mn(II) complexes are formed in 100% at physiological pH, which is an essential aspect of the practical use.

| Compound | r1 (relaxivity) [1] | Gd(III) release at 37° C. relative to value calculated from experiments at 25° C. ([2]; 37° C. vs 25° C.) | Gd(III) ion released during in vivo dissociation ([2]; 37° C.) | logK1 (protonation constant) [3] | logK2 (protonation constant) [3] | logK3 (protonation constant) [3] | logK4 (protonation constant) [3] | ΣlogKi^H (total basicity) [3] | logKMnL (stability constant of Mn(II) complex) [4] | pMn [4] |
| --- | --- | --- | --- | --- | --- | --- | --- | --- | --- | --- |
| CNC[C@H](O)[C@@H](O)[C@H](O)[C@H](O)CO.O=C([O-])CN1CCN(CC(=O)[O-])CCN(CC(=O)O)CCN(CC(=O)[O-])CC1.[Gd+3] [DOTAREM] | 3.83 mM⁻¹ s⁻¹ | – | – | – | – | – | – | – | – | – |
| CNC[C@H](O)[C@@H](O)[C@H](O)[C@H](O)CO.CNC[C@H](O)[C@@H](O)[C@H](O)[C@H](O)CO.O=C([O-])CN(CCN(CC(=O)[O-])CC(=O)O)CCN(CC(=O)[O-])CC(=O)O.[Gd+3] [MAGNEVIST] | 4.02 mM⁻¹ s⁻¹ | 4.4 fold | 2.2% | – | – | – | – | – | – | – |
| O=C(O)C1CCCN1C(=O)CN1CCOCCN(CC(=O)N2CCCC2C(=O)O)Cc2cccc(n2)C1 (stereo not shown) [tOPC2AM^Pro] | – | – | – | 7.37(3) | 5.14(4) | 3.26(4) | 2.40(4) | 18.17 | 10.03(1) | 7.37 |
| O=C(O)CN1CCOCCN(CC(=O)O)Cc2cccc(n2)C1 [tOPC2A, 4-oxo-1,7-diaza-2,6-pyridinophane-diacetate] | – | – | – | 7.73(2) | 7.66(1) | 2.13(1) | – | 17.52 | 13.03(1) | 8.59 |
| O=C(CN1CCOCCN(CC(=O)N2CCCCC2)Cc2cccc(n2)C1)N1CCCCC1 [tOPC2AM^Pyp, 3,9-bis[2-oxo-2-(piperidin-1-yl)-ethyl]-6-oxa-3,9,15-triaza-bicyclo[9.3.1]pentadeca-1(14),11(15),12-triene] | – | – | – | 7.91(2) | 5.51(3) | – | – | 13.42 | 10.84(4) | 7.60 |
